By IC50 is commonly meant the midpoint of a concentration-inhibition curve.

Experimental findings from patent US12336981B2, “Compounds and compositions for the inhibition of NAMPT” (Valo Health, Inc., priority 2010, dated 2025) are described below.

Molecules are shown by their SMILES. Like-named read-outs stand apart in the source and are kept apart here.

Assay [1] concerns the target T1, NAMPT (Homo sapiens, UniProt P43490).
T1 construct: His tag; host or cells: E. coli
The experiment in a line: Biochemical inhibition assay: NAMPT enzymatic reaction, NMN quantified by mass spectrometry. The conditions noted are these: read-out: Biochem IC50. Summed up:
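Inhibition of E. coli-expressed His-tagged human NAMPT, measured as NMN formation by mass spectrometry after a 30 min room-temperature reaction containing 1 μM NAM, 100 μM PRPP and 2.5 mM ATP.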

For assay [2], the system named is A2780 cells. In words: In-vitro cell proliferation assay (SRB), A2780 cells. It is filed as cell-based. The following applies: Homo sapiens, A2780, 72 h, A2780 cells, 72 hours, read-out: A2780 IC50. The procedure, abridged:
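Proliferation is assessed by sulforhodamine B staining following a 72-hour incubation with compound dilutions containing 0.1% DMSO.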

T1 sequence (P43490 whole entry): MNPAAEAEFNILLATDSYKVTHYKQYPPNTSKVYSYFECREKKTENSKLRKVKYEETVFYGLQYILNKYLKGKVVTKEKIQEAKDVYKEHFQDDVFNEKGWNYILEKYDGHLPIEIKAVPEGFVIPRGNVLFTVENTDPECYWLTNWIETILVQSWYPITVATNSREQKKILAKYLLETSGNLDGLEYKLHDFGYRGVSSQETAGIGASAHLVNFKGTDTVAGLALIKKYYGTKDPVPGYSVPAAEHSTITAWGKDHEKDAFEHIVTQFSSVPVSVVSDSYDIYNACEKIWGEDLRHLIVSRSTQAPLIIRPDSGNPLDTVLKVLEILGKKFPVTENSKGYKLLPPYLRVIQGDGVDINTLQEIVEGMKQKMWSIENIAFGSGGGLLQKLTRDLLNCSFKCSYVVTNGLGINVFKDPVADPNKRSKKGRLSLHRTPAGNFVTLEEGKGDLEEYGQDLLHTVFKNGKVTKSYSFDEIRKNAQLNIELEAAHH

For `O=C(NCc1ccc(S(=O)(=O)c2ccccc2)cc1)N1CCc2ncncc2C1` [N-{[4-(benzenesulfonyl)phenyl]methyl}-5H,6H,7H,8H-pyrido[4,3-d]pyrimidine-6-carboxamide], the IC50 in assay [1] (NAMPT enzymatic reaction) and in assay [2] (SRB assay) was over 2000 nM in each case.

Take `O=C(NCc1ccc(S(=O)(=O)c2ccccc2)cc1)c1ccc2nncn2c1` [N-{[4-(benzenesulfonyl)phenyl]methyl}-[1,2,4]triazolo[4,3-a]pyridine-6-carboxamide]: the concentration for half-maximal inhibition (IC50) in assay [1] (NAMPT enzymatic reaction) is 301 nM; in assay [2] (SRB assay), over 10000 nM.

Consider `O=C(NCc1ccc(S(=O)(=O)c2ccccc2)cc1)c1nc2ccncc2s1` [N-{[4-(benzenesulfonyl)phenyl]methyl}-[1,3]thiazolo[5,4-c]pyridine-2-carboxamide], for which the IC50 in assay [1] (NAMPT enzymatic assay) was 220 nM; in assay [2] (SRB), over 10000 nM.

Turning to `O=C(NCc1ccc(S(=O)(=O)c2ccccc2)cc1)c1cn2ccncc2n1` [N-{[4-(benzenesulfonyl)phenyl]methyl}imidazo[1,2-a]pyrazine-2-carboxamide], the figures for the 50% inhibitory concentration (IC50) in assay [1] (NAMPT enzymatic reaction) and in assay [2] (SRB assay) were 1490 nM and over 30000 nM, respectively.

Take `O=C(NCc1ccc(S(=O)(=O)c2ccccc2)cc1)c1cnc2nccn2c1` [N-{[4-(benzenesulfonyl)phenyl]methyl}imidazo[1,2-a]pyrimidine-6-carboxamide]: the concentration for half-maximal inhibition (IC50) in assay [1] (NAMPT enzymatic assay) worked out at 2 nM; in assay [2] (SRB), 57 nM.

As for `O=C(NCc1ccc(S(=O)(=O)c2ccccc2)cc1)c1ccc2cnccc2c1` [N-{[4-(benzenesulfonyl)phenyl]methyl}isoquinoline-6-carboxamide], the half-maximal inhibitory concentration (IC50) in assay [1] (NAMPT enzymatic reaction) turned out to be 16100 nM; in assay [2] (SRB assay), 21300 nM.

Regarding `O=C(NCc1ccc(S(=O)(=O)c2ccccc2)cc1)c1ccc2ccncc2c1` [N-{[4-(benzenesulfonyl)phenyl]methyl}isoquinoline-7-carboxamide], the figures for the IC50 in assay [1] (NAMPT enzymatic reaction) and in assay [2] (SRB assay) were 219 nM and 24000 nM, respectively.

With `O=C(NCc1ccc(S(=O)(=O)c2ccccc2)cc1)c1ccc2ncncc2c1` [N-{[4-(benzenesulfonyl)phenyl]methyl}quinazoline-6-carboxamide], the results for the IC50 in assay [1] (NAMPT enzymatic reaction) and in assay [2] (SRB assay) were 16100 nM and 21300 nM, respectively.

Take `O=C(NCc1ccc(S(=O)(=O)c2ccccc2)cc1)c1ccc2ncccc2c1` [N-{[4-(benzenesulfonyl)phenyl]methyl}quinoline-6-carboxamide]: the IC50 in assay [1] (NAMPT enzymatic assay) is 108 nM; in assay [2] (SRB) it was over 10000 nM.

Turning to `O=C(NCc1ccc(S(=O)(=O)c2ccccc2)cc1)c1cc2nccnc2s1` [N-{[4-(benzenesulfonyl)phenyl]methyl}thieno[2,3-b]pyrazine-6-carboxamide], the values for the 50% inhibitory concentration (IC50) in assay [1] (NAMPT enzymatic reaction) and in assay [2] (SRB assay) were 52 nM and over 30000 nM, respectively.

`O=C(NCc1ccc(S(=O)(=O)C2CCCCC2)cc1)c1cc2cnccc2[nH]1` [N-{[4-(cyclohexanesulfonyl)phenyl]methyl}-1H-pyrrolo[3,2-c]pyridine-2-carboxamide]: the IC50 in assay [1] (NAMPT enzymatic assay) turned out to be 5 nM; in assay [2] (SRB) it was 17.6 nM.

Consider `Cc1nc(C)c(S(=O)(=O)c2ccc(CNC(=O)c3cnc4[nH]ncc4c3)cc2)s1` [N-{[4-(dimethyl-1,3-thiazole-5-sulfonyl)phenyl]methyl}-1H-pyrazolo[3,4-b]pyridine-5-carboxamide], for which the results for the IC50 in assay [1] (NAMPT enzymatic assay) and in assay [2] (SRB) were 38.6 nM and 16.4 nM, respectively.

As for `Cc1nc(C)c(S(=O)(=O)c2ccc(CNC(=O)c3cc4ccncc4o3)cc2)s1` [N-{[4-(dimethyl-1,3-thiazole-5-sulfonyl)phenyl]methyl}furo[2,3-c]pyridine-2-carboxamide], the figures for the IC50 in assay [1] (NAMPT enzymatic assay) and in assay [2] (SRB) were 8.3 nM and 10.3 nM, respectively.

As for `Cc1nc(C)c(S(=O)(=O)c2ccc(CNC(=O)c3ccc4nccn4c3)cc2)s1` [N-{[4-(dimethyl-1,3-thiazole-5-sulfonyl)phenyl]methyl}imidazo[1,2-a]pyridine-6-carboxamide], the results for the half-maximal inhibitory concentration (IC50) in assay [1] (NAMPT enzymatic assay) and in assay [2] (SRB) were 9 nM and 3.7 nM, respectively.

Take `Cc1nc(C)c(S(=O)(=O)c2ccc(CNC(=O)c3cnc4nccn4c3)cc2)s1` [N-{[4-(dimethyl-1,3-thiazole-5-sulfonyl)phenyl]methyl}imidazo[1,2-a]pyrimidine-6-carboxamide]: the figures for the half-maximal inhibitory concentration (IC50) in assay [1] (NAMPT enzymatic assay) and in assay [2] (SRB) were 3.7 nM and 49.5 nM, respectively.

For `Cc1nc(C)c(S(=O)(=O)c2ccc(CNC(=O)c3cc4ccncc4s3)cc2)s1` [N-{[4-(dimethyl-1,3-thiazole-5-sulfonyl)phenyl]methyl}thieno[2,3-c]pyridine-2-carboxamide], the IC50 was found to be 1.3 nM in assay [1] (NAMPT enzymatic assay) and 3 nM in assay [2] (SRB).

Turning to `O=C(NCc1ccc(S(=O)(=O)c2ccco2)cc1)c1ccc2nccn2c1` [N-{[4-(furan-2-sulfonyl)phenyl]methyl}imidazo[1,2-a]pyridine-6-carboxamide], the IC50 in assay [1] (NAMPT enzymatic assay) is 76.2 nM; in assay [2] (SRB), 100 to 1000 nM.

`O=C(NCc1ccc(S(=O)(=O)c2cncc3ccccc23)cc1)c1cnc2[nH]ncc2c1` [N-{[4-(isoquinoline-4-sulfonyl)phenyl]methyl}-1H-pyrazolo[3,4-b]pyridine-5-carboxamide]: the figures for the half-maximal inhibitory concentration (IC50) in assay [1] (NAMPT enzymatic assay) and in assay [2] (SRB) were 3.7 nM and 2.5 nM, respectively.

Consider `O=C(NCc1ccc(S(=O)(=O)c2cncc3ccccc23)cc1)c1cc2cnccc2[nH]1` [N-{[4-(isoquinoline-4-sulfonyl)phenyl]methyl}-1H-pyrrolo[3,2-c]pyridine-2-carboxamide], for which the IC50 in assay [1] (NAMPT enzymatic assay) is 10.9 nM; in assay [2] (SRB), 1.6 nM.

`O=C(NCc1ccc(S(=O)(=O)c2cncc3ccccc23)cc1)c1cc2ccncc2o1` [N-{[4-(isoquinoline-4-sulfonyl)phenyl]methyl}furo[2,3-c]pyridine-2-carboxamide]: the IC50 came to 19 nM in assay [1] (NAMPT enzymatic assay) and 3 nM in assay [2] (SRB).

Take `O=C(NCc1ccc(S(=O)(=O)c2cncc3ccccc23)cc1)c1ccc2nccn2c1` [N-{[4-(isoquinoline-4-sulfonyl)phenyl]methyl}imidazo[1,2-a]pyridine-6-carboxamide]: the results for the IC50 in assay [1] (NAMPT enzymatic assay) and in assay [2] (SRB) were 22.4 nM and 4.1 nM, respectively.

Consider `O=C(NCc1ccc(S(=O)(=O)c2cncc3ccccc23)cc1)c1cc2ccncc2s1` [N-{[4-(isoquinoline-4-sulfonyl)phenyl]methyl}thieno[2,3-c]pyridine-2-carboxamide], for which the IC50 in assay [1] (NAMPT enzymatic assay) was found to be 6.7 nM; in assay [1] (NAMPT enzymatic reaction), 3 nM; in assay [2] (SRB assay) it was 0.7 nM; in assay [2] (SRB), 0.8 nM.

On to `O=C(NCc1ccc(S(=O)(=O)c2cccc3ccccc23)cc1)c1cnc2[nH]ncc2c1` [N-{[4-(naphthalene-1-sulfonyl)phenyl]methyl}-1H-pyrazolo[3,4-b]pyridine-5-carboxamide], for which the half-inhibitory concentration (IC50) in assay [1] (NAMPT enzymatic assay) came to 9.1 nM; in assay [2] (SRB), 3.68 nM.

For `O=C(NCc1ccc(S(=O)(=O)c2cccc3ccccc23)cc1)c1cc2ccncc2o1` [N-{[4-(naphthalene-1-sulfonyl)phenyl]methyl}furo[2,3-c]pyridine-2-carboxamide], the IC50 came out at 4.9 nM in assay [1] (NAMPT enzymatic assay) and 3.1 nM in assay [2] (SRB).

As to `O=C(NCc1ccc(S(=O)(=O)c2cccc3ccccc23)cc1)c1cnc2nccn2c1` [N-{[4-(naphthalene-1-sulfonyl)phenyl]methyl}imidazo[1,2-a]pyrimidine-6-carboxamide], the figures for the half-maximal inhibitory concentration (IC50) in assay [1] (NAMPT enzymatic assay) and in assay [2] (SRB) were 2.9 nM and 3.6 nM, respectively.

Take `O=C(NCc1ccc(S(=O)(=O)c2cccc3ccccc23)cc1)c1cc2ccncc2s1` [N-{[4-(naphthalene-1-sulfonyl)phenyl]methyl}thieno[2,3-c]pyridine-2-carboxamide]: the half-inhibitory concentration (IC50) in assay [1] (NAMPT enzymatic reaction) turned out to be 2 nM; in assay [2] (SRB assay), 0.5 nM.

For `O=C(NCc1ccc(S(=O)(=O)c2cccc3c2Oc2ccccc2S3)cc1)c1cnc2[nH]ncc2c1` [N-{[4-(phenoxathiine-4-sulfonyl)phenyl]methyl}-1H-pyrazolo[3,4-b]pyridine-5-carboxamide], the concentration for half-maximal inhibition (IC50) in assay [1] (NAMPT enzymatic assay) came to 14.8 nM; in assay [2] (SRB), 20.4 nM.

For `O=C(NCc1ccc(S(=O)(=O)c2cccc3c2Oc2ccccc2S3)cc1)c1cc2cnccc2[nH]1` [N-{[4-(phenoxathiine-4-sulfonyl)phenyl]methyl}-1H-pyrrolo[3,2-c]pyridine-2-carboxamide], the IC50 in assay [1] (NAMPT enzymatic reaction) came out at 5 nM; in assay [2] (SRB assay), 0.9 nM.

For `O=C(NCc1ccc(S(=O)(=O)c2cccc3c2Oc2ccccc2S3)cc1)c1cc2ccncc2o1` [N-{[4-(phenoxathiine-4-sulfonyl)phenyl]methyl}furo[2,3-c]pyridine-2-carboxamide], the results for the half-inhibitory concentration (IC50) in assay [1] (NAMPT enzymatic assay) and in assay [2] (SRB) were 5.6 nM and 13.1 nM, respectively.

With `O=C(NCc1ccc(S(=O)(=O)c2cccc3c2Oc2ccccc2S3)cc1)c1ccc2nccn2c1` [N-{[4-(phenoxathiine-4-sulfonyl)phenyl]methyl}imidazo[1,2-a]pyridine-6-carboxamide], the IC50 in assay [1] (NAMPT enzymatic assay) amounted to 2.15 nM; in assay [2] (SRB), 2.18 nM.

As for `O=C(NCc1ccc(S(=O)(=O)c2cccc3c2Oc2ccccc2S3)cc1)c1cnc2nccn2c1` [N-{[4-(phenoxathiine-4-sulfonyl)phenyl]methyl}imidazo[1,2-a]pyrimidine-6-carboxamide], the IC50 in assay [1] (NAMPT enzymatic assay) was found to be 2.1 nM; in assay [2] (SRB), 4.2 nM.

As to `O=C(NCc1ccc(S(=O)(=O)c2cccc3c2Oc2ccccc2S3)cc1)c1cc2ccncc2s1` [N-{[4-(phenoxathiine-4-sulfonyl)phenyl]methyl}thieno[2,3-c]pyridine-2-carboxamide], the results for the IC50 in assay [1] (NAMPT enzymatic reaction) and in assay [2] (SRB assay) were 4 nM and 1.7 nM, respectively.

For the molecule `O=C(NCc1ccc(S(=O)(=O)Cc2ccccc2)cc1)c1cc2cnccc2[nH]1` [N-{[4-(phenylmethane)sulfonylphenyl]methyl}-1H-pyrrolo[3,2-c]pyridine-2-carboxamide], the results for the IC50 in assay [1] (NAMPT enzymatic reaction) and in assay [2] (SRB assay) were 29 nM and 302 nM, respectively.

For `O=C(NCc1ccc(S(=O)(=O)N2CCCCC2)cc1)c1ccc2ncsc2c1` [N-{[4-(piperidine-1-sulfonyl)phenyl]methyl}-1,3-benzothiazole-6-carboxamide], the IC50 in assay [1] (NAMPT enzymatic reaction) was determined as 9 nM; in assay [2] (SRB assay), 10 nM.
